Measured values from paper PMC10610379, “Epidrugs as Promising Tools to Eliminate Plasmodium falciparum Artemisinin-Resistant and Quiescent Parasites” (Pharmaceutics, 2023).
Where “and” joins values, the source holds several entries; their conditions need not be identical. Equal values may be shown once. Read-outs that look alike come from different tables or passages of the source.

Assays:
[1] = system: Plasmodium falciparum F32-ART (artemisinin-resistant strain); experiment: Standard chemosensitivity assay (SYBR Green I), F32-ART; format: cell-based; details: for IC50: read-out: Antiplasmodial Activity: IC50, F32-ART; for Selectivity Index CC50/IC50: ratio cytotoxicity (mammalian cell type of the CC50)/antiplasmodial activity on F32-ART
Experimental: (§1) They differ by eight mutations in seven genes (PF3D7_0110400, PF3D7_1343700, PF3D7_0213400, PF3D7_1115700, PF3D7_1302100, PF3D7_1459600, PF3D7_1464500) among them the M476I mutation on the kelch13 gene. F32-ART and F32-TEM strains have RSA^0–3 h values up to 12% and less than 0.1%, respectively. […] Both strains were cultured, in the same conditions, according to the Trager and Jensen protocol with modifications. Briefly, parasites were cultivated in RPMI-1640 medium (Biowest) at 2% hematocrit in human red blood cells and 5% human serum (EFS, French Blood Bank) under 5% CO2 in a humid atmosphere at 37 °C.
(§2) The antimalarial activities of the compounds were evaluated on both strains. […] Antimalarial activities were determined with the SYBR Green I method. Each drug concentration was tested in triplicate. The parasites were incubated with the drugs for 48 h. Plates were read on a BioTek FLX800 Microplate Fluorescence Reader (Bio-Tek instruments, Winooski, VT, USA) (λexcitation = 485 nm, λemission = 528 nm). Control parasite culture (i.e., RPMI with 0.5% DMSO) was referred to as 100% growth. IC50 and IC90 values were determined using GraphPad Prism version 7.05 (GraphPad Software, San Diego, CA, USA). Results were the mean of 3 independent experiments. When it is relevant, statistical significance between results obtained with both parasite strains was determined by a Mann–Whitney test using GraphPad Prism version 7.05.

MCF7 = details: cited from earlier work
[2] = system: Plasmodium falciparum F32-TEM (artemisinin-sensitive twin line); experiment: Standard chemosensitivity assay (SYBR Green I), F32-TEM; format: cell-based; details: read-out: Antiplasmodial Activity: IC50, F32-TEM
Experimental: as §1, §2

[3] = system: ART-resistant parasites F32-ART at the quiescent stage; experiment: Quiescent-stage Survival Assay (QSA), 48-h exposure; format: cell-based, Plasmodium falciparum; details: for Delay in parasite recrudescence time (difference between median recrudescence times), ART/ART + compound vs ART/ART: quiescence induced with ART 3 µM 6 h, then 48 h ART + compound at its IC90; for Delay in recrudescence time, DHA/DHA + compound vs DHA/DHA: quiescence induced with DHA 700 nM 6 h, then 48 h DHA + compound at its IC90
Experimental: The sensitivity of the ART-resistant parasites F32-ART at the quiescent stage towards the different molecules was determined using the QSA (Quiescent-stage Survival Assay), as previously described.
Epidrugs were tested at their IC90 values. In the present study, quiescence was induced using 3 µM of ART or 700 nM of DHA [28]. Thus, D-sorbitol synchronized ring-stage parasites at 3% parasitemia and 2% hematocrit (5 mL of culture per well in 6-well plates) were first exposed to 6 h of ART or DHA to induce quiescence and then to 48 h of the combination “ART or DHA + compound to be tested”. The combinations “ART 6 h/ART 48 h” or “DHA 6 h/DHA 48 h” were used as controls. The compounds were evaluated, in parallel, on proliferating parasites, i.e., without any pre-treatment. After drug exposure, parasite cultures were washed with 40 mL of RPMI-1640 medium and cultured in drug-free conditions supplemented with 10% human serum in new wells. The parasitemia for each condition was then microscopically monitored every 2 days. Culture media were renewed twice a week and 25 µL of fresh red blood cells were added once a week. Obtained data were used to perform Kaplan–Meier survival analyses considering censored data. The outcome was defined as the day when parasite cultures reached the initial parasitemia (3%) and data were considered as censored if no parasite recrudescence was observed during the 30-day experiment timeframe. When relevant, statistical significance between results obtained for the conditions “ART/ART” and “ART/ART + compound to be tested” or “DHA/DHA” and “DHA/DHA + compound to be tested” was determined by a Log Rank (Mantel Cox) test using GraphPad Prism version 7.05. For the best compounds targeting histones, in order to compare western blots data, modified QSAs were carried out by comparing “DHA 6 h/DHA 24 h” versus “DHA 6 h/DHA + compound to be tested 24 h”.

H3K4me2 = experiment: Immunoblotting, histone mark abundance in F32-ART parasites; format: cell-based, Plasmodium falciparum
Experimental: (§3) Abundance of methylated and acetylated histone was determined in parasite cultures in different conditions: “not-treated”, “DHA 24 h”, “DHA 6 h/DHA 24 h” and “DHA 6 h/DHA + compound to be tested 24 h”. At the end of the treatments, parasite cultures were washed in RPMI-1640 and then twice in PBS 1× before red blood cell lysis with 0.075% saponin (Sigma-Aldrich) in PBS. Parasite ghosts were washed 3 times in PBS before incubating the ghosts with E1A lysis buffer (50 mM Hepes pH 7.5; 250 mM NaCl; 5 mM EDTA; 0.1% Triton X-100, 1 mM DTT, 0.2 mM PMSF supplemented with complete Mini EDTA-free protease inhibitor cocktail (Roche®, Basel, Switzerland)) for 15 min. Ghosts were then sonicated for 3 × 15s ON/OFF cycles to shear parasite membranes. Debris were pelleted by centrifuging for 15 min at 13,800× g and 4 °C, and supernatants (containing parasitic proteins) were then collected. Protein concentrations were determined using BCA assay (Bio-Rad, Hercules, CA, USA) according to the manufacturer’s instructions. For each sample, 10 µg of proteins were mixed with 4× sample buffer (10 mL 50% Glycerol, 5 mL 0.5 M Tris HCl pH 6.8, 4 mL 20% SDS, 0.02% Bromophenol blue for a total solution volume of 20 mL) and 100 mM DTT and then separated on 15% SDS-PAGE gels in Laemmli running buffer. Gels were then wet-transferred O/N at 20 V onto PVDF membranes. Membranes were blocked in TBST for 1 h at room temperature. Bottom parts were then probed with histone antibodies while upper parts were probed with PFALDOLASE antibody (Abcam, ab38905, Cambridge, UK) at 1:20,000 dilution. The following primary antibodies were used: anti-H3K4me1 (Abcam, ab8895); anti-H3K4me2 (Abcam, ab35356); anti-H3K9me2 (Abcam, ab1220); anti-H3K9me3 (Millipore, 07-442, Burlington, MA, USA); anti-tetra-acetyl H4 (Millipore, 06-866); anti-H4K8Ac (Millipore, 07-328); anti-H4K20me3 (Abcam, ab9053); anti-H3K4me3 (Diagenode) and anti-H3K9Ac (Millipore, 07-352) at 1:10,000. The following secondary antibodies were used: anti-rabbit IgG-Peroxidase produced in goat (Sigma-Aldrich) or anti-mouse IgG-Peroxidase (Sigma-Aldrich); at 1:20,000 dilutions. Blots were developed using ECL Prime Western Blotting (GE Healthcare, Chicago, IL, USA) and read on a Chemidoc touch imaging software. Densitometry analysis was performed by using ImageLab software from Bio-Rad. To determine if variations in histone abundances were statistically significant, immunoblotting experiments were performed on 3 biological replicates and each run was performed twice.

H4K20me3 = experiment: as above; format: cell-based, Plasmodium falciparum
Experimental: as §3

H3K4me3 = experiment: as above; format: cell-based, Plasmodium falciparum
Experimental: as §3

H3K4me1 = experiment: as above; format: cell-based, Plasmodium falciparum
Experimental: as §3

HFF = details: read-out: Cytotoxicity: CC50 (HFF), data from literature ref 48; cited from earlier work
NFF = details: cited from earlier work
[4] = system: ART-resistant parasites F32-ART at the quiescent stage; experiment: Modified QSA, 24-h exposure; format: cell-based, Plasmodium falciparum; details: DHA 700 nM, compound at its IC90, 24-h exposure
Experimental: Epidrugs were tested at their IC90 values. In the present study, quiescence was induced using 3 µM of ART or 700 nM of DHA [28]. Thus, D-sorbitol synchronized ring-stage parasites at 3% parasitemia and 2% hematocrit (5 mL of culture per well in 6-well plates) were first exposed to 6 h of ART or DHA to induce quiescence and then to 48 h of the combination “ART or DHA + compound to be tested”. The combinations “ART 6 h/ART 48 h” or “DHA 6 h/DHA 48 h” were used as controls. The compounds were evaluated, in parallel, on proliferating parasites, i.e., without any pre-treatment. […] The parasitemia for each condition was then microscopically monitored every 2 days. […] When relevant, statistical significance between results obtained for the conditions “ART/ART” and “ART/ART + compound to be tested” or “DHA/DHA” and “DHA/DHA + compound to be tested” was determined by a Log Rank (Mantel Cox) test using GraphPad Prism version 7.05. […]
To collect enough material for immunoblotting, we performed the analysis after a 24-h exposure of DHA-treated parasites to the epidrug and in parallel evaluated the activity of the three epidrugs in a modified QSA, in which quiescent parasites were exposed to the drug to be tested for 24 instead of 48 h, as in our previous experiments (Figure 2).

[5] = Plasmodium falciparum, F32, 48 h
[6] = 90nM, 24 h, F32-ART ring stage proliferating, 3 replicates (Fig 3B)
[7] = 90nM, DHA 6 h/DHA + BIX-01294 24 h, F32-ART DHA-treated parasites, 3 replicates (Fig 3F)
[8] = Plasmodium falciparum, F32-ART, 48 h incubation, SYBR Green I, mean ± SEM of 3 experiments (* mean of 2)
[9] = Plasmodium falciparum, F32-TEM, 48 h incubation, SYBR Green I, mean ± SEM of 3 experiments (* mean of 2)
[10] = 270 nM, 24 h, F32-ART ring stage proliferating, 3 replicates (Fig 3C)
[11] = 270 nM, DHA 6 h/DHA + TM2-115 24 h, F32-ART DHA-treated parasites, 3 replicates (Fig 3G)

O=C(CCCCCCC(=O)N[c-]1cccc1)NO.[Fe+2].c1cc[cH-]c1 [JAHA]
IC50 ([1]; F32-ART, 48 h incubation, SYBR Green I, mean ± SEM of 3 experiments (* mean of 2)): 460 ± 30 nM
CC50 (MCF7; MCF7 cancer, data from literature ref 42, read-out: Cytotoxicity: CC50 (MCF7 cancer)): 2400 nM
IC50 ([2]; F32-TEM, 48 h incubation, SYBR Green I, mean ± SEM of 3 experiments (* mean of 2)): 690 ± 80 nM

COc1cc2nc(N3CCCN(C)CC3)nc(NC3CCN(Cc4ccccc4)CC3)c2cc1OC [BIX-01294]
Delay in parasite recrudescence time (difference between median recrudescence times), ART/ART + compound vs ART/ART [3]: 8.5 days
Delay in recrudescence time, DHA/DHA + compound vs DHA/DHA [3]: slightly shorter delay
IC50 [1, 5]: 56 ± 8 nM
Selectivity Index CC50/IC50 [1]: 110
IC50 [2, 5]: 55 ± 14 nM
Fold change of H3K4me2 abundance, BIX-01294 vs DMSO (H3K4me2; [6]): significantly decreased level and 0.66 and 0.68 and 0.73
Fold change of H3K4me2 abundance, BIX-01294, quiescent stage (H3K4me2; [7]): did not induce a quantifiable change and 1.57 and 0.88 and 0.79
Fold change of H4K20me3 abundance, BIX-01294 vs DMSO (H4K20me3; [6]): significantly decreased level and 0.69 and 0.64 and 0.72
Fold change of H4K20me3 abundance, BIX-01294, quiescent stage (H4K20me3; [7]): did not induce a quantifiable change and 0.66 and 1.37 and 0.84
Fold change of H3K4me3 abundance, BIX-01294 vs DMSO (H3K4me3; [6]): significantly decreased level and 0.89 and 0.88 and 0.80
Fold change of H3K4me3 abundance, BIX-01294, quiescent stage (H3K4me3; [7]): did not induce a quantifiable change and 1.11 and 1.28 and 0.96
Fold change of H3K4me1 abundance, BIX-01294 vs DMSO (H3K4me1; [6]): significantly decreased level and 0.58 and 0.68 and 0.70
Fold change of H3K4me1 abundance, BIX-01294, quiescent stage (H3K4me1; [7]): did not induce a quantifiable change and 1.47 and 1.13 and 0.70
CC50 (HFF): 6100 nM

O=C(CCCCCCC(=O)Nc1ccccc1)NO [SAHA]
CC50 (NFF; read-out: Cytotoxicity: CC50 (NFF), data from literature ref 43): 5500 nM

COc1ccc(CN2CCc3ccc(C(=O)NO)cc32)cc1 [PCI 34051]
IC50 [1, 8]: 8000 nM
Selectivity Index CC50/IC50 [1]: >2.5
CC50 (MCF7; MCF7, data from literature ref 45, read-out: Cytotoxicity: CC50 (MCF7)): > 20000 nM
IC50 [2, 9]: 9000 nM

COc1cc2c(NC3CCN(C)CC3)nc(N3CCCN(C)CC3)nc2cc1OCc1ccccc1 [TM2-115]
Delay in parasite recrudescence time (difference between median recrudescence times), ART/ART + compound vs ART/ART [3]: 9.5 days
Delay in recrudescence time, DHA/DHA + compound vs DHA/DHA [3]: ≥ 6 days
IC90 ([1]; Plasmodium falciparum, F32, concentration used in QSA and immunoblotting): 270 nM
IC50 [1, 8]: 128 ± 30 nM
Selectivity Index CC50/IC50 [1]: 45
Recrudescence in modified QSA, DHA 6 h/DHA + compound 24 h vs DHA 6 h/DHA 24 h [4]: clearly impaired quiescent parasite survival
IC50 [2, 9]: 104 ± 32 nM
Fold change of H3K4me2 abundance, TM2-115 vs DMSO (H3K4me2; [10]): 1.31 and 1.11 and 0.85
Fold change of H3K4me2 abundance, TM2-115, quiescent stage (H3K4me2; [11]): did not induce a quantifiable change and 1.00 and 0.95 and 0.47
Fold change of H4K20me3 abundance, TM2-115 vs DMSO (H4K20me3; [10]): inhibited H4K20 methylation and 0.82 and 0.71 and 0.76
Fold change of H4K20me3 abundance, TM2-115, quiescent stage (H4K20me3; [11]): did not induce a quantifiable change and 1.10 and 1.20 and 0.97
Fold change of H3K4me3 abundance, TM2-115 vs DMSO (H3K4me3; [10]): 1.39 and 1.69 and 1.12
Fold change of H3K4me3 abundance, TM2-115, quiescent stage (H3K4me3; [11]): did not induce a quantifiable change and 0.81 and 0.67 and 1.16
Fold change of H3K4me1 abundance, TM2-115 vs DMSO (H3K4me1; [10]): 1.37 and 0.47 and 2.10
Fold change of H3K4me1 abundance, TM2-115, quiescent stage (H3K4me1; [11]): did not induce a quantifiable change and 0.51 and 1.07 and 0.76
CC50 (HFF): 5700 nM

CC(/C=C/C(=O)NO)=C\[C@@H](C)C(=O)c1ccc(N(C)C)cc1 [Trichostatin A]
IC50 [1, 8]: 29 ± 12 nM
Selectivity Index CC50/IC50 [1]: 7
CC50 (NFF; read-out: Cytotoxicity: CC50 (NFF), data from literature ref 40): 200 nM
IC50 [2, 9]: 30 ± 3 nM
